Assay results as given in ChEMBL document CHEMBL5365410, “SAR of L-ABBA analogs for GGT1 inhibitory activity and L-ABBA's effect on plasma cysteine and GSH species” (Bioorg Med Chem Lett, 2023).
Each block holds one compound with its values, some of them ahead of it. Active and inactive are the calls of the source. The rule behind the calls is not given here.

Experiments:
[1] = molecular target: T1, Glutathione hydrolase 1 proenzyme (Homo sapiens, UniProt P19440); test: Inhibition of GGT1 (unknown origin) transpeptidation assessed as inhibition constant using L-GpNA as substrate in presence of Gly-Gly
T1 sequence (P19440 1-380 limits assumed): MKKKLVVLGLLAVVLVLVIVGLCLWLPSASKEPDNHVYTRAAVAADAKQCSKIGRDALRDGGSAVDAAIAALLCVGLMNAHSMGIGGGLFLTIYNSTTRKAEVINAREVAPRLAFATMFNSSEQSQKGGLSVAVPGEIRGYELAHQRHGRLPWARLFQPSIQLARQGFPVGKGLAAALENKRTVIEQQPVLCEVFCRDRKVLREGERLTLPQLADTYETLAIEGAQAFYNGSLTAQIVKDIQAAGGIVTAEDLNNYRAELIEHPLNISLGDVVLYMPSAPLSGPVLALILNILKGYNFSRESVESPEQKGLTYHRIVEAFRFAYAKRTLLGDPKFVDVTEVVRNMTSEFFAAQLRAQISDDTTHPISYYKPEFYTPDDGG
T1 sequence (P19440 381-569 limits assumed): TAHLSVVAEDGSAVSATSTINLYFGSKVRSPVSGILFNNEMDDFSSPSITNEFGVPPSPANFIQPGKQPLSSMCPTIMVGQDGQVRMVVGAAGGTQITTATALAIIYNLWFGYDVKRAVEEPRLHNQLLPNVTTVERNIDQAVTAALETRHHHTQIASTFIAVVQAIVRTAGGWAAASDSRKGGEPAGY

[2] = molecular target: T1, Glutathione hydrolase 1 proenzyme; test: Inhibition of GGT1 (unknown origin) assessed as GSH hydrolysis by measuring inhibition constant
[3] = molecular target: T1, Glutathione hydrolase 1 proenzyme; test: Inhibition of GGT1 (unknown origin) assessed as GSH hydrolysis at […] relative to control
[4] = molecular target: T1, Glutathione hydrolase 1 proenzyme; test: Inhibition of GGT1 (unknown origin) transpeptidation at 37500 uM using L-GpNA as substrate in presence of Gly-Gly relative to control
[5] = Inhibition of bovine GGT1 transpeptidation assessed as inhibition constant; design: species or system Bos taurus
[6] = Inhibition of bovine GGT1 assessed as GSH hydrolysis by measuring inhibition constant; design: species or system Bos taurus
[7] = molecular target: T1, Glutathione hydrolase 1 proenzyme; test: Inhibition of GGT1 (unknown origin) transpeptidation at 9100 uM using L-GpNA as substrate in presence of Gly-Gly relative to control
[8] = tested on: Mus musculus; test: In-vivo inhibition of GGT1 in mouse assessed as effect on GSH level in plasma at 0.2 to 1 mg; type: functional; conditions: dose 0.2-1 mg, time 0.5-48 hrs, TDE = time-dependent effect
[9] = tested on: Mus musculus; test: In-vivo inhibition of GGT1 in mouse assessed as increase in GSH level in plasma at 0.03 mg measured after 48 hrs; type: functional
[10] = In-vivo inhibition of GGT1 in mouse assessed as increase in GSSG level in plasma at 0.03 mg measured after 6 hrs; type: functional; conditions: values are per cent of control
[11] = Volume of distribution at steady in C57BL/6 mouse at 0.3 mg/kg, ip; type: ADME, organism-based; conditions: in vivo
[12] = tested on: Mus musculus; test: In-vivo inhibition of GGT1 in mouse assessed as decrease in total cysteine level in plasma at 0.03 mg measured after 48 hrs; type: functional
[13] = In-vivo inhibition of GGT1 in mouse assessed as increase in cystine level in plasma measured after 1 hrs; type: functional
[14] = In-vivo inhibition of GGT1 in mouse assessed as increase in GSH level in plasma at 0.03 to 1 mg measured after 1 hrs; type: functional; conditions: dose 0.03-1 mg, values are per cent of control
[15] = tested on: Mus musculus; test: In-vivo inhibition of GGT1 in mouse assessed as effect on GSH level in plasma measured at 0.5 to 48 hrs; type: functional; conditions: dose 0.2-1 mg, time 0.5-48 hrs
[16] = In-vivo inhibition of GGT1 in mouse assessed as increase in total GSH level in plasma at 0.03 mg measured after 6 hrs; type: functional; conditions: values are per cent of control
[17] = tested on: Mus musculus; test: In-vivo inhibition of GGT1 in mouse assessed as effect on GSSG level in plasma measured at 0.5 to 48 hrs; type: functional; conditions: dose 0.2-1 mg, time 0.5-48 hrs
[18] = In-vivo inhibition of GGT1 in mouse assessed as decrease in GSH level in plasma at 0.03 mg measured at 24 hrs; type: functional
[19] = In-vivo inhibition of GGT1 in mouse assessed as decrease in GSH level in plasma at 0.03 mg measured at 24 to 48 hrs; type: functional; conditions: time 24-48 hrs
[20] = In-vivo inhibition of GGT1 in mouse assessed as decrease in cystine level in plasma at 0.03 mg measured after 1 hrs; type: functional
[21] = In-vivo inhibition of GGT1 in mouse assessed as decrease in cysteine level in plasma at 0.03 mg measured after 1 hrs; type: functional
[22] = tested on: Mus musculus; test: In-vivo inhibition of GGT1 in mouse assessed as effect on cysteine level in plasma measured at 0.5 to 48 hrs; type: functional; conditions: dose 0.2-1 mg, time 0.5-48 hrs
[23] = In-vivo inhibition of GGT1 in mouse assessed as increase in GSSG level in plasma at 0.03 mg measured after 1 hrs; type: functional; conditions: values are per cent of control
[24] = In-vivo inhibition of GGT1 in mouse assessed as decrease in GSH level in plasma at 0.03 mg measured at 48 hrs; type: functional
[25] = In-vivo inhibition of GGT1 in mouse assessed as increase in cystine-NEM level in plasma measured after 1 hrs; type: functional
[26] = In-vivo inhibition of GGT1 in mouse assessed as decrease in total cysteine level in plasma at 0.03 mg measured after 1 hrs; type: functional
[27] = Cmax in C57BL/6 mouse at 0.3 mg/kg, ip; type: ADME, organism-based; design: dose 0.3 mg/kg, route ip; conditions: in vivo
[28] = MRT in C57BL/6 mouse at 0.3 mg/kg, ip; type: ADME, organism-based; conditions: in vivo
[29] = tested on: Mus musculus; test: In-vivo inhibition of GGT1 in mouse assessed as effect on cysteine level in plasma at 0.2 to 1 mg; type: functional; conditions: dose 0.2-1 mg, time 0.5-48 hrs, TDE = time-dependent effect
[30] = Half life in C57BL/6 mouse at 0.3 mg/kg, ip; type: ADME, organism-based; conditions: in vivo
[31] = Clearance in C57BL/6 mouse at 0.3 mg/kg, ip; type: ADME, organism-based; conditions: in vivo
[32] = tested on: Mus musculus; test: In-vivo inhibition of GGT1 in mouse assessed as effect on GSSG level in plasma at 0.2 to 1 mg; type: functional; conditions: dose 0.2-1 mg, time 0.5-48 hrs, TDE = time-dependent effect
[33] = In-vivo inhibition of GGT1 in mouse assessed as increase in GSH-NEM level in plasma at 0.03 mg measured after 6 hrs; type: functional; conditions: values are per cent of control
[34] = In-vivo inhibition of GGT1 in mouse assessed as decrease in GSH level in plasma at 0.03 mg measured after 1 hr; type: functional

SMILES: CCCC(N)(CCB(O)O)C(=O)O (racemic)
- Ki [1]: 198 µM
- Ki [2]: 703 µM

SMILES: COc1ccc(Cc2nnc(NS(=O)(=O)c3ccccc3)s2)cc1
- Ki [1]: 68 µM

SMILES: CCC(N)(CCB(O)O)C(=O)O (racemic)
- Ki [1]: 444 µM
- Ki [2]: 874 µM

SMILES: CC(N)(CCB(O)O)C(=O)O (racemic)
- Ki [1]: 0.92 µM
- Ki [2]: 2.8 µM

SMILES: NCCCB(O)O
- inhibition [7]: inactive
- Ki [2]: > 5000 µM

SMILES: N[C@@H](CCB(O)O)C(=O)O
- inhibition [8]: Tde
- inhibition [9]: Active
- response, % of control [10]: 1500%
- Ki [1]: 0.005 µM
- Vdss [11]: 20.76 mL
- inhibition [12]: Active
- ID50 [13]: 0.002 mg
- response, % of control [14]: 250%
- inhibition [15]: Dose-Dependent Effect
- response, % of control [16]: 1000%
- inhibition [17]: Dose-Dependent Effect
- inhibition (INH) [18]: <50%
- Ki [5]: 0.005 µM
- inhibition (INH) [19]: 33%
- inhibition (INH) [20]: 75%
- inhibition (INH) [21]: 25%
- inhibition [22]: Dose-Dependent Effect
- response, % of control [23]: 1000%
- inhibition (INH) [24]: 89%
- Ki [6]: 0.025 µM
- ID50 [25]: 0.22 mg
- inhibition (INH) [26]: 35%
- Cmax [27]: 15300 ng/mL
- MRT [28]: 5.42 h
- inhibition [29]: Tde
- half-life [30]: 3.92 h
- CL/F [31]: 0.0612 mL/min
- inhibition [32]: Tde
- response, % of control [33]: 500%
- inhibition (INH) [34]: 85%

Results, then the compound that gave them:

- Ki [1]: 3820 µM
- Ki [2]: > 4000 µM
SMILES: N[C@@H](CCCB(O)O)C(=O)O

- inhibition [3]: 50%
- inhibition [4]: 50%
SMILES: O=C(O)CCCB(O)O

- Ki [5]: 0.045 µM
- Ki [6]: 0.077 µM
SMILES: N[C@H](CCB(O)O)C(=O)O
